# Several values for one entry are separate records, joined by “and”; a condition that tells them apart may be missing. Equal values may be shown once. Read-outs that look alike come from different tables or passages of the source.
# Columns and labels:
# [1] = system: S. mansoni newly transformed schistosomula (NTS); test: Schistosome phenotypic assay; format: cell-based, Schistosoma mansoni; details: for Severity score Day 1 / Severity score Day 2 / Severity score Day 3 / Severity score Day 4: 10 μM inhibitor, scale 0 (no effect) to 4 (severe); for Severity score Day 1: 24 h; for Severity score Day 2: 48 h
# Experimental: Newly transformed schistosomula (NTS) of S. mansoni were prepared by mechanically transforming infective larvae (cercariae) as described previously.[70],[71] NTS (200–300 parasites) were incubated in 200 μL of Basch Medium 169 containing 5% FBS, 100 U mL^–1 penicillin, and 100 μg mL^–1 streptomycin at 5% CO2 and 37 °C.[70],[72],[73] Inhibitors were added at the final concentration of 10 μM,[20],[69] and changes in phenotypes were observed every 24 h for up to 4 days. A constrained nomenclature of “descriptors” is used to record the multiple and dynamic changes in movement, shape, and translucence of which the schistosome parasite is capable (Table S3).[70] These descriptors are then converted into an ordinal “severity score” system from 0 (no effect) to 4 (maximum effect), which allows for the relative comparison of compound effects, as described.[74],[75] Images of NTS were captured using a Zeiss Axiovert 40 C inverted microscope (10× objective) and a Zeiss AxioCam MRc digital camera controlled by AxioVision 40 (v. 4.8.1.0) software.
# recombinant SmCB1 = recombinant SmCB1 (Schistosoma mansoni, UniProt Q8MNY2, T185A/T300A); test: SmCB1 kinetic inhibition assay with fluorogenic substrate Cbz-Phe-Arg-AMC; format: biochemical; details: for Ki / SmCB1 inhibition k2nd (second-order rate constant): substrate Cbz-Phe-Arg-AMC; for binding kinetics (shape of progress curves): Figure 2; for SmCB1 inhibition k2nd (second-order rate constant): slow-binding azadipeptide nitriles
# recombinant SmCB1, sequence (Q8MNY2 87-340 T185A/T300A): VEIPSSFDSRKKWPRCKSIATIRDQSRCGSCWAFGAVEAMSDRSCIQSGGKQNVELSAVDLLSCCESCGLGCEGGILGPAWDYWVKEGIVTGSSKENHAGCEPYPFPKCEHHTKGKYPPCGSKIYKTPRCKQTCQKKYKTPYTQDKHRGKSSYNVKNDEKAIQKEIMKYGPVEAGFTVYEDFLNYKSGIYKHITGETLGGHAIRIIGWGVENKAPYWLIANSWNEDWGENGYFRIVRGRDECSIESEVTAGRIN
# Experimental: Inhibition measurements were performed in triplicates in 96-well microplates (100 μL assay volume) at 37 °C. SmCB1 (20–40 pM) was added to a mixture of the fluorogenic substrate Cbz-Phe-Arg-AMC (20 μM) and an inhibitor (0–100 μM) in 0.1 M sodium acetate, pH 5.5, containing 2.5 mM dithiothreitol and 0.1% PEG 6000. The substrate hydrolysis was monitored in an Infinite M1000 microplate reader (Tecan, Männedorf, Switzerland) at excitation and emission wavelengths of 360 and 465 nm, respectively, for up to 15 and 60 min for fast- and slow-binding inhibitors, respectively. […] For slow-binding inhibitors, an observed first-order rate constant kobs was calculated at each inhibitor concentration by fitting the progress curve to the equation P = vst + (vi – vs)(1 – […])/kobs + d, where P is the product formation, vs is the steady-state velocity, t is the reaction time, vi is the initial velocity, and d is the offset. The inhibition constant Ki′ was determined by nonlinear regression using the equation vs/v0 = 1/(1 + [I]/Ki′). The true inhibition constants Ki were then calculated using the equation Ki = Ki′/(1 + [S]/Km), where [S] is the substrate concentration and Km is the Michaelis constant. The apparent second-order rate constant k2nd′ was determined by fitting to the linear equation kobs = k2nd′[I] + koff, where koff is the first-order rate constants for the dissociation of the enzyme–inhibitor complex and the true constant k2nd was calculated by the correction k2nd = k2nd′(1 + [S]/Km). […] In none of the assay systems did the final concentration of DMSO exceed 1.5%.
# [2] = SmCB1 inhibition Ki, Table S2, carbadipeptide nitriles
# [3] = SmCB1 inhibition Ki, kinetic activity assay, pH 5.5, 37 °C
# [4] = Table S2, carbadipeptide nitriles, read-out: SmCB1 inhibition Ki
smiles,measurement,setting,value
CN(C#N)N(C)C(=O)CNC(=O)OCc1ccccc1 [Compound 1a],Severity score Day 1,[1],0 and 0/0
same,Severity score Day 2,[1],0 and 0/0
same,Severity score Day 3,[1],0
same,Severity score Day 4,[1],0
same,phenotype severity against NTS,"[1]; 10 μM, up to 4 days",ineffective
N#CCNC(=O)CNC(=O)OCc1ccccc1 [Compound 1c],Ki,recombinant SmCB1; [2],> 10 µM
same,Ki,recombinant SmCB1; [3],> 100 µM
same,Severity score Day 1,[1],0
same,Severity score Day 2,[1],0
same,Severity score Day 3,[1],0
same,Severity score Day 4,[1],0
CN(C#N)N(C)C(=O)[C@H](Cc1ccccc1)NC(=O)OCc1ccccc1 [Compound 2a],koff,recombinant SmCB1,0.0003 ± 2e-05 s⁻¹
same,binding kinetics (shape of progress curves),recombinant SmCB1,slow-binding
same,Ki,recombinant SmCB1; [3],0.0194 ± 0.0014 µM
same,SmCB1 inhibition k2nd (second-order rate constant),recombinant SmCB1,15.7 ± 1.1 10^3 M^-1 s^-1
same,Descriptors Day 1 (phenotypic changes),[1]; 10 µM inhibitor,Deg
same,Descriptors Day 2 (phenotypic changes),[1]; 10 µM inhibitor,Deg
same,Severity score Day 1,[1],4 and 4/4
same,Severity score Day 2,[1],4 and 4/4
same,Severity score Day 3,[1],4
same,Severity score Day 4,[1],4
N#CCNC(=O)[C@H](Cc1ccccc1)NC(=O)OCc1ccccc1 [Compound 2c],binding kinetics (shape of progress curves),recombinant SmCB1,fast-binding
same,Ki,recombinant SmCB1; [2],2.92 ± 0.32 µM
same,Ki,recombinant SmCB1; [3],2.92 ± 0.32 µM
same,Severity score Day 1,[1],0
same,Severity score Day 2,[1],0
same,Severity score Day 3,[1],0
same,Severity score Day 4,[1],0
"CC(C)C[C@H](NC(=O)NCc1ccccc1)C(=O)NCC#N [Compound 3c, (S)-2-(3-Benzylureido)-N-(cyanomethyl)-4-methylpentanamide]",Ki,recombinant SmCB1; [2],> 10 µM
same,Ki,recombinant SmCB1; [3],> 100 µM
same,Severity score Day 1,[1],0
same,Severity score Day 2,[1],0
same,Severity score Day 3,[1],0
same,Severity score Day 4,[1],0
CC(C)C[C@H](NC(=O)Nc1ccc(-c2noc(-c3cccs3)n2)cc1)C(=O)N(C)N(C)C#N [Compound 4a],Ki,recombinant SmCB1; [3],0.0367 ± 0.0026 µM
same,SmCB1 inhibition k2nd (second-order rate constant),recombinant SmCB1,13.9 ± 2.9 10^3 M^-1 s^-1
same,Descriptors Day 1 (phenotypic changes),[1]; 10 µM inhibitor,"R, Unc, Dark"
same,Descriptors Day 2 (phenotypic changes),[1]; 10 µM inhibitor,Deg
same,Severity score Day 1,[1],3
same,Severity score Day 2,[1],4
same,Severity score Day 3,[1],4
same,Severity score Day 4,[1],4
CC(C)C[C@H](NC(=O)Nc1ccc(-c2noc(-c3cccs3)n2)cc1)C(=O)NCC#N [Compound 4c],Ki,recombinant SmCB1; [2],6.62 ± 0.91 µM
same,Ki,recombinant SmCB1; [3],6.62 ± 0.91 µM
same,Descriptors Day 1 (phenotypic changes),[1]; 10 µM inhibitor,"R, S"
same,Descriptors Day 2 (phenotypic changes),[1]; 10 µM inhibitor,R
same,Descriptors Day 4 (phenotypic changes),[1]; 10 µM inhibitor,"R, S"
same,Severity score Day 1,[1],2
same,Severity score Day 2,[1],1
same,Severity score Day 3,[1],0
same,Severity score Day 4,[1],2
CC(C)C[C@H](NC(=O)c1ccc(-c2noc(-c3cccs3)n2)cc1)C(=O)NCC#N [Compound 5c],Ki,recombinant SmCB1; [2],1.22 ± 0.2 µM
same,Ki,recombinant SmCB1; [3],1.21 ± 0.205 µM
same,Descriptors Day 2 (phenotypic changes),[1]; 10 µM inhibitor,R
same,Descriptors Day 3 (phenotypic changes),[1]; 10 µM inhibitor,"R, Dark"
same,Descriptors Day 4 (phenotypic changes),[1]; 10 µM inhibitor,Deg
same,Severity score Day 1,[1],0
same,Severity score Day 2,[1],1
same,Severity score Day 3,[1],2
same,Severity score Day 4,[1],4
CC(C)C[C@@H](C(=O)N(C)N(C)C#N)N(C)C(=O)c1ccc(-c2noc(-c3cccs3)n2)cc1 [Compound 6a],Ki,recombinant SmCB1; [3],1.54 ± 0.25 µM
same,decrease in potency versus 5a,recombinant SmCB1; ratio of SmCB1 Ki values,300 fold
same,SmCB1 inhibition k2nd (second-order rate constant),recombinant SmCB1,0.5 ±0.1 10^3 M^-1 s^-1
same,Descriptors Day 1 (phenotypic changes),[1]; 10 µM inhibitor,Deg
same,Descriptors Day 2 (phenotypic changes),[1]; 10 µM inhibitor,Deg
same,Severity score Day 1,[1],4 and 4/4
same,Severity score Day 2,[1],4 and 4/4
same,Severity score Day 3,[1],4
same,Severity score Day 4,[1],4
CC(C)C[C@@H](C(=O)NCC#N)N(C)C(=O)c1ccc(-c2noc(-c3cccs3)n2)cc1 [Compound 6c],Ki,recombinant SmCB1; [2],> 10 µM
same,Ki,recombinant SmCB1; [3],> 100 µM
same,Descriptors Day 4 (phenotypic changes),[1]; 10 µM inhibitor,R
same,Severity score Day 1,[1],0
same,Severity score Day 3,[1],0
CN(C#N)N(C)C(=O)C1(NC(=O)c2ccc(-c3noc(-c4cccs4)n3)cc2)CCCCC1 [Compound 7a],Ki,recombinant SmCB1; [3],0.229 ± 0.007 µM
same,Descriptors Day 1 (phenotypic changes),[1]; 10 µM inhibitor,"R, Unc, Dark"
same,Descriptors Day 2 (phenotypic changes),[1]; 10 µM inhibitor,Deg
same,Severity score Day 1,[1],3
same,Severity score Day 2,[1],4
same,Severity score Day 3,[1],4
same,Severity score Day 4,[1],4
N#CCNC(=O)C1(NC(=O)c2ccc(-c3noc(-c4cccs4)n3)cc2)CCCCC1 [Compound 7c],Ki,recombinant SmCB1; [2],> 10 µM
same,Ki,recombinant SmCB1; [3],> 100 µM
same,Severity score Day 1,[1],0
same,Severity score Day 2,[1],0
same,Severity score Day 3,[1],0
same,Severity score Day 4,[1],0
C[C@@H](C#N)NC(=O)[C@H](Cc1ccccc1)NC(=O)OCc1ccccc1 [Compound 8c],Ki,recombinant SmCB1; [2],> 10 µM
same,Severity score Day 1,[1],0
same,Severity score Day 2,[1],0
same,Severity score Day 3,[1],0
same,Severity score Day 4,[1],0
CC(C)(C)OC(=O)NCC(=O)NCC#N [Gü807],Ki,recombinant SmCB1; [4],> 10 µM
CC(C)(C)OC(=O)N[C@@H](Cc1ccccc1)C(=O)NCC#N [Gü809],Ki,recombinant SmCB1; [4],> 10 µM
CC(C)C[C@H](NC(=O)OC(C)(C)C)C(=O)NCC#N [Gü914],Ki,recombinant SmCB1; [4],> 10 µM
CC(C)(C)OC(=O)N[C@@H](Cc1ccc(O)cc1)C(=O)NCC#N [Gü915],Ki,recombinant SmCB1; [4],> 10 µM
CC(C)(C)OC(=O)N[C@@H](Cc1c[nH]c2ccccc12)C(=O)NCC#N [Gü916],Ki,recombinant SmCB1; [4],> 10 µM
CC(C)C[C@H](NC(=O)OCc1ccccc1)C(=O)NCC#N [Gü928],Ki,recombinant SmCB1; [4],> 10 µM
CC(C)(C)OC(=O)N[C@@H](CC1CCCCC1)C(=O)NCC#N [Gü929],Ki,recombinant SmCB1; [4],> 10 µM
CC(C)(C)OC(=O)N[C@@H](COCc1ccccc1)C(=O)NCC#N [Gü930],Ki,recombinant SmCB1; [4],> 10 µM
CC(C)[C@H](NC(=O)OC(C)(C)C)C(=O)NCC#N [Gü931],Ki,recombinant SmCB1; [4],> 10 µM
CCC(C)C(NC(=O)OC(C)(C)C)C(=O)NCC#N (stereo not shown) [Gü932],Ki,recombinant SmCB1; [4],> 10 µM
C[C@H](NC(=O)OC(C)(C)C)C(=O)NCC#N [Gü933],Ki,recombinant SmCB1; [4],> 10 µM
CSCC[C@H](NC(=O)OC(C)(C)C)C(=O)NCC#N [Gü935],Ki,recombinant SmCB1; [4],> 10 µM
CC(C)(C)OC(=O)N1CCC[C@H]1C(=O)NCC#N [Gü936],Ki,recombinant SmCB1; [4],> 10 µM
CSCC[C@@H](C#N)NC(=O)[C@H](Cc1ccccc1)NC(=O)OC(C)(C)C [Gü968],Ki,recombinant SmCB1; [4],> 10 µM
CC(C)(C)OC(=O)N[C@@H](Cc1ccccc1)C(=O)N[C@H](C#N)CC#N [Gü970],Ki,recombinant SmCB1; [4],> 10 µM
CC(C)(C)OC(=O)N[C@@H](Cc1ccc(Br)cc1)C(=O)NCC#N [Gü1121],Ki,recombinant SmCB1; [4],> 10 µM
CC(C)(C)OC(=O)N[C@@H](Cc1cccc(Br)c1)C(=O)NCC#N [Gü1122],Ki,recombinant SmCB1; [4],> 10 µM
CC(C)(C)OC(=O)N[C@@H](Cc1cccc2ccccc12)C(=O)NCC#N [Gü1127],Ki,recombinant SmCB1; [4],> 10 µM
CC(C)(C)OC(=O)N[C@@H](CCc1ccccc1)C(=O)NCC#N [Gü1129],Ki,recombinant SmCB1; [4],> 10 µM
CC(C)(C)OC(=O)N[C@H](C(=O)NCC#N)c1ccccc1 [Gü1130],Ki,recombinant SmCB1; [4],> 10 µM
CCC[C@H](NC(=O)OC(C)(C)C)C(=O)NCC#N [Gü1131],Ki,recombinant SmCB1; [4],> 10 µM
CC[C@H](NC(=O)OC(C)(C)C)C(=O)NCC#N [Gü1132],Ki,recombinant SmCB1; [4],> 10 µM
CC(C)(C)OC(=O)N[C@H](Cc1ccccc1)C(=O)NCC#N [Gü1133],Ki,recombinant SmCB1; [4],> 10 µM
CC(=O)N[C@@H](Cc1ccccc1)C(=O)NCC#N [Gü1134],Ki,recombinant SmCB1; [4],> 10 µM
N#CCNC(=O)[C@H](Cc1ccccc1)NC(=O)c1ccccc1 [Gü1135],Ki,recombinant SmCB1; [4],> 10 µM
CC(C)(C)OC(=O)N[C@@H](CC1CC1)C(=O)NCC#N [Gü1228],Ki,recombinant SmCB1; [4],> 10 µM
CC(C)(C)OC(=O)N[C@@H](Cc1ccsc1)C(=O)NCC#N [Gü1232],Ki,recombinant SmCB1; [4],> 10 µM
CC(C)(C)OC(=O)N[C@@H](Cc1ccc(F)cc1)C(=O)NCC#N [Gü1237],Ki,recombinant SmCB1; [4],> 10 µM
CC(C)(C)OC(=O)N[C@@H](Cc1cccc(F)c1)C(=O)NCC#N [Gü1239],Ki,recombinant SmCB1; [4],> 10 µM
CC(C)(C)OC(=O)N[C@@H](Cc1ccccc1F)C(=O)NCC#N [Gü1242],Ki,recombinant SmCB1; [4],> 10 µM
CC(C)(C)OC(=O)N[C@@H](Cc1csc2ccccc12)C(=O)NCC#N [Gü1246],Ki,recombinant SmCB1; [4],> 10 µM
N#CCNC(=O)C1(NC(=O)OCc2ccccc2)CCCCC1 [Gü2195],Ki,recombinant SmCB1; [4],> 10 µM
